The subject of this assay is biosynthesis of cholesterol. Nature of the assay: CSI screen (cholesterol synthesis inhibition) as disclosed in U.S. Pat. No. 4,681,893. Type of assay: biochemical. The source says:
The compounds according to present invention and especially according to the compound of the formula I inhibit the biosynthesis of cholesterol as found in the CSI screen that is disclosed in U.S. Pat. No. 4,681,893 which is now also incorporated by reference therefor. The CSI data of the compound I, its enantiomer the compound II and the racemate of these two compounds are as follows: […]

Data on 2 molecules can be found in patent USRE40667E1, “[R-(R*R*)]-2-(4-fluorophenyl)-β,δ-dihydroxy-5-(1-methylethyl-3-phenyl-4-[(phenylamino)carbonyl]-1H-pyrrole-1-heptanoic acid, its lactone form and salts thereof” (Warner-Lambert Company LLC, priority 1989, dated 2009).

The molecule `CC(C)c1c(C(=O)Nc2ccccc2)c(-c2ccccc2)c(-c2ccc(F)cc2)n1CCC(O)CC(O)CC(=O)O` (single isomer, unassigned) [[S—(R*R*)] isomer] showed a half-inhibitory concentration (IC50) of 440 nM.

Turning to `CC(C)c1c(C(=O)Nc2ccccc2)c(-c2ccccc2)c(-c2ccc(F)cc2)n1CC[C@@H](O)C[C@@H](O)CC(=O)O` (single isomer, unassigned) [[R—(R*R*)] isomer, [R-(R*,R*)]-2-(4-fluorophenyl)-β,δ-dihydroxy-5-(1-methylethyl)-3-phenyl-4-[(phenylamino)carbonyl]-1H-pyrrole-1-heptanoic acid], the IC50 was found to be 4.4 nM.

The IC50 is the midpoint of a concentration-inhibition curve. Low readings indicate inhibition by little substance, high ones a need for much substance.
